This is an account of results in ChEMBL document CHEMBL1671642 (2009).

Format in all cases: functional
Assay [1] concerns Escherichia coli. Put plainly: Antimicrobial activity against Escherichia coli K-12 3-AG300 harboring AcrB-F628F mutant gene.
Assay [2] has as its system Escherichia coli. Put plainly: Antimicrobial activity against Escherichia coli K-12 3-AG300 harboring acrB::rpsLneo mutant gene.
Assay [3] relates to Escherichia coli. Put plainly: Antimicrobial activity against Escherichia coli K-12 3-AG300 harboring AcrB-615-628MexB mutant gene.
In assay [4] the test system is Escherichia coli. Put plainly: Ratio of MIC for Escherichia coli K-12 3-AG300 harboring acrB::rpsLneo mutant gene to MIC for Escherichia coli K-12 3-AG300.
Assay [5] has as its system Escherichia coli. Put plainly: Antimicrobial activity against Escherichia coli K-12 3-AG300 harboring AcrB-615-628MexB-N616 mutant gene.
Assay [6] has as its system Escherichia coli. Put plainly: Antimicrobial activity against Escherichia coli K-12 3-AG300 harboring AcrB-615-628MexB-M626I mutant gene.
Assay [7] concerns Escherichia coli. Kind of assay: Antimicrobial activity against Escherichia coli K-12 3-AG300 harboring AcrB-I626M mutant gene.
Assay [8] relates to Escherichia coli. Kind of assay: Antimicrobial activity against Escherichia coli K-12 3-AG300 harboring AcrB-G616N mutant gene.
Assay [9] deals with Escherichia coli. Put plainly: Ratio of MIC for Escherichia coli K-12 3-AG300 harboring AcrB-615-628MexB mutant gene to MIC for Escherichia coli K-12 3-AG300.
Assay [10] concerns Escherichia coli. Put plainly: Ratio of MIC for Escherichia coli K-12 3-AG300 harboring AcrB-615-628MexB-M626I mutant gene to MIC for Escherichia coli K-12 3-AG300.
In assay [11] the test system is Escherichia coli. Put plainly: Ratio of MIC for Escherichia coli K-12 3-AG300 harboring AcrB-G616N mutant gene to MIC for Escherichia coli K-12 3-AG300.
The subject of assay [12] is Escherichia coli. Put plainly: Antimicrobial activity against Escherichia coli K-12 3-AG300 harboring AcrB-615-628MexB-S623N mutant gene.
Assay [13] relates to Escherichia coli. Kind of assay: Antimicrobial activity against Escherichia coli K-12 3-AG300 harboring AcrB-N623S-Q624S mutant gene.

≈ marks a conversion by molar mass, not a printed value.

Regarding `CCOc1ccc(-c2nc3cc(-c4nc5cc(N6CCN(C)CC6)ccc5[nH]4)ccc3[nH]2)cc1`, the results for the MIC against Escherichia coli [1], in the assay on Escherichia coli [2] and in the assay on Escherichia coli [3] were 4 µg/mL (≈ 8.84 µM), 0.125 µg/mL (≈ 0.276 µM) and 4 µg/mL (≈ 8.84 µM), respectively. For the same compound, in the assay with Escherichia coli [4], the Ratio is 4.
Take `CC[C@H]1OC(=O)[C@H](C)[C@@H](O[C@H]2C[C@@](C)(OC)[C@@H](O)[C@H](C)O2)[C@H](C)[C@@H](O[C@@H]2O[C@H](C)C[C@H](N(C)C)[C@H]2O)[C@](C)(O)C[C@@H](C)CN(C)[C@H](C)[C@@H](O)[C@]1(C)O` [AZITHROMYCIN]: the minimum inhibitory concentration (MIC) (usually the smallest concentration in the dilution series that meets the test's criterion for growth inhibition) was 64 µg/mL (≈ 85.4 µM) in the assay with Escherichia coli [1]; 0.5 µg/mL (≈ 0.668 µM) against Escherichia coli [2]; 16 µg/mL (≈ 21.4 µM) with Escherichia coli [3]; 64 µg/mL (≈ 85.4 µM) in the assay with Escherichia coli [5]; 8 µg/mL (≈ 10.7 µM) in the assay with Escherichia coli [6]; 32 µg/mL (≈ 42.7 µM) against Escherichia coli [7]. In addition, the MIC with Escherichia coli [8] and against Escherichia coli [12] was 16 µg/mL (≈ 21.4 µM) throughout. For the same compound, the Ratio in the assay with Escherichia coli [4], in the assay on Escherichia coli [9], in the assay on Escherichia coli [10] and in the assay on Escherichia coli [11] was 4 in each case.
For `CCBr` [BROMOETHANE], the MIC in the assay with Escherichia coli [1] was determined as 512 µg/mL (≈ 4700 µM); against Escherichia coli [2], 16 µg/mL (≈ 147 µM); in the assay with Escherichia coli [3], 512 µg/mL (≈ 4700 µM); with Escherichia coli [5], 512 µg/mL (≈ 4700 µM); in the assay on Escherichia coli [6], 512 µg/mL (≈ 4700 µM); against Escherichia coli [7], 1020 µg/mL (≈ 9400 µM). Besides, the MIC in the assay with Escherichia coli [8] worked out at 1020 µg/mL (≈ 9400 µM); with Escherichia coli [13] it was 1020 µg/mL (≈ 9400 µM); in the assay on Escherichia coli [12] it was 512 µg/mL (≈ 4700 µM). Moreover, the Ratio in the assay with Escherichia coli [4] worked out at 4.
`O=C(N[C@H](CO)[C@H](O)c1ccc([N+](=O)[O-])cc1)C(Cl)Cl` [CHLORAMPHENICOL]: the MIC in the assay with Escherichia coli [1] amounted to 8 µg/mL (≈ 24.8 µM); in the assay on Escherichia coli [2] it was 1 µg/mL (≈ 3.09 µM); in the assay on Escherichia coli [5], 8 µg/mL (≈ 24.8 µM); in the assay on Escherichia coli [6] it was 8 µg/mL (≈ 24.8 µM); in the assay with Escherichia coli [7], 8 µg/mL (≈ 24.8 µM); against Escherichia coli [8], 8 µg/mL (≈ 24.8 µM). Besides, the MIC against Escherichia coli [13] came out at 8 µg/mL (≈ 24.8 µM).
Turning to `CC[C@H]1OC(=O)[C@H](C)[C@@H](O[C@H]2C[C@@](C)(OC)[C@@H](O)[C@H](C)O2)[C@H](C)[C@@H](O[C@@H]2O[C@H](C)C[C@H](N(C)C)[C@H]2O)[C@](C)(OC)C[C@@H](C)C(=O)[C@H](C)[C@@H](O)[C@]1(C)O` [CLARITHROMYCIN], the MIC was 512 µg/mL (≈ 685 µM) in the assay with Escherichia coli [1]; 4 µg/mL (≈ 5.35 µM) against Escherichia coli [2]; 64 µg/mL (≈ 85.6 µM) in the assay on Escherichia coli [3]; 512 µg/mL (≈ 685 µM) in the assay on Escherichia coli [5]; 64 µg/mL (≈ 85.6 µM) with Escherichia coli [6]; 512 µg/mL (≈ 685 µM) in the assay on Escherichia coli [7]. The values for the MIC against Escherichia coli [8], with Escherichia coli [13] and in the assay on Escherichia coli [12] were 128 µg/mL (≈ 171 µM), 512 µg/mL (≈ 685 µM) and 128 µg/mL (≈ 171 µM), respectively. Also, the Ratio in the assay on Escherichia coli [4], with Escherichia coli [9], in the assay on Escherichia coli [10] and with Escherichia coli [11] was 4 each time.
Regarding `CCC[C@@H]1C[C@@H](C(=O)N[C@@H]([C@H]2O[C@H](SC)[C@H](O)[C@@H](O)[C@H]2O)[C@H](C)Cl)N(C)C1` [CLINDAMYCIN], the minimum inhibitory concentration (MIC) is 256 µg/mL (≈ 602 µM) against Escherichia coli [1], 4 µg/mL (≈ 9.41 µM) against Escherichia coli [2] and 256 µg/mL (≈ 602 µM) against Escherichia coli [3]. Also, in the assay with Escherichia coli [4], the Ratio is on record as 4.
In the case of `CC[C@H]1OC(=O)[C@H](C)[C@@H](O[C@H]2C[C@@](C)(OC)[C@@H](O)[C@H](C)O2)[C@H](C)[C@@H](O[C@@H]2O[C@H](C)C[C@H](N(C)C)[C@H]2O)[C@](C)(O)C[C@@H](C)C(=O)[C@H](C)[C@@H](O)[C@]1(C)O` [ERYTHROMYCIN], the minimal inhibitory concentration (MIC) against Escherichia coli [1] came out at 512 µg/mL (≈ 698 µM); against Escherichia coli [2], 4 µg/mL (≈ 5.45 µM); in the assay on Escherichia coli [3], 128 µg/mL (≈ 174 µM); in the assay on Escherichia coli [5] it was 256 µg/mL (≈ 349 µM); against Escherichia coli [6], 128 µg/mL (≈ 174 µM); in the assay on Escherichia coli [7] it was 512 µg/mL (≈ 698 µM). Besides, the minimum inhibitory concentration (MIC) worked out at 128 µg/mL (≈ 174 µM) with Escherichia coli [8] and 256 µg/mL (≈ 349 µM) against Escherichia coli [12]. Moreover, the Ratio in the assay on Escherichia coli [4], in the assay on Escherichia coli [9], with Escherichia coli [10] and in the assay on Escherichia coli [11] was 4 throughout.
For the compound `CC(=O)NC[C@H]1CN(c2ccc(N3CCOCC3)c(F)c2)C(=O)O1` [LINEZOLID], the minimum inhibitory concentration (MIC) against Escherichia coli [1] stood at 512 µg/mL (≈ 1520 µM); in the assay with Escherichia coli [2] it was 16 µg/mL (≈ 47.4 µM); with Escherichia coli [3], 1020 µg/mL (≈ 3040 µM); with Escherichia coli [5] it was 1020 µg/mL (≈ 3040 µM); in the assay with Escherichia coli [6], 1020 µg/mL (≈ 3040 µM); against Escherichia coli [7], 512 µg/mL (≈ 1520 µM). Besides, the minimal inhibitory concentration (MIC) against Escherichia coli [8] worked out at 512 µg/mL (≈ 1520 µM); in the assay with Escherichia coli [13], 512 µg/mL (≈ 1520 µM); in the assay with Escherichia coli [12] it was 1020 µg/mL (≈ 3040 µM). Also, the Ratio in the assay with Escherichia coli [4] was found to be 4.
For `CN(C)c1ccc(O)c2c1C[C@H]1C[C@H]3[C@H](N(C)C)C(O)=C(C(N)=O)C(=O)[C@@]3(O)C(O)=C1C2=O` [MINOCYCLINE], the minimal inhibitory concentration (MIC) with Escherichia coli [1] came to 4 µg/mL (≈ 8.74 µM); in the assay with Escherichia coli [2], 0.125 µg/mL (≈ 0.273 µM); in the assay on Escherichia coli [3], 2 µg/mL (≈ 4.37 µM); against Escherichia coli [5], 2 µg/mL (≈ 4.37 µM); against Escherichia coli [6] it was 4 µg/mL (≈ 8.74 µM); in the assay on Escherichia coli [7], 4 µg/mL (≈ 8.74 µM). The values for the MIC in the assay on Escherichia coli [8], against Escherichia coli [13] and in the assay on Escherichia coli [12] were 4 µg/mL (≈ 8.74 µM), 4 µg/mL (≈ 8.74 µM) and 2 µg/mL (≈ 4.37 µM), respectively. In addition, in the assay with Escherichia coli [4], the Ratio amounted to 4.
For the compound `CO[C@@H]1[C@@H](OC(N)=O)[C@@H](O)[C@H](Oc2ccc3c(O)c(NC(=O)c4ccc(O)c(CC=C(C)C)c4)c(=O)oc3c2C)OC1(C)C` [NOVOBIOCIN], the minimum inhibitory concentration (MIC) against Escherichia coli [1] came out at 512 µg/mL (≈ 836 µM); in the assay with Escherichia coli [2], 4 µg/mL (≈ 6.53 µM); with Escherichia coli [3] it was 512 µg/mL (≈ 836 µM); in the assay with Escherichia coli [5], 512 µg/mL (≈ 836 µM); against Escherichia coli [6], 512 µg/mL (≈ 836 µM); against Escherichia coli [7], 512 µg/mL (≈ 836 µM). For the same compound, the MIC in the assay on Escherichia coli [8] was determined as 512 µg/mL (≈ 836 µM); in the assay on Escherichia coli [13], 512 µg/mL (≈ 836 µM); with Escherichia coli [12], 1020 µg/mL (≈ 1670 µM). In the assay on Escherichia coli [4], the Ratio was determined as 4.
Regarding `Cc1onc(-c2ccccc2)c1C(=O)N[C@@H]1C(=O)N2[C@@H]1SC(C)(C)[C@@H]2C(=O)O` [OXACILLIN], the MIC against Escherichia coli [1] amounted to 512 µg/mL (≈ 1280 µM); against Escherichia coli [2], 0.5 µg/mL (≈ 1.25 µM); against Escherichia coli [3], 256 µg/mL (≈ 638 µM); against Escherichia coli [5], 256 µg/mL (≈ 638 µM); against Escherichia coli [6], 256 µg/mL (≈ 638 µM); with Escherichia coli [7], 512 µg/mL (≈ 1280 µM). Further, the MIC turned out to be 256 µg/mL (≈ 638 µM) against Escherichia coli [8], 256 µg/mL (≈ 638 µM) in the assay with Escherichia coli [13] and 512 µg/mL (≈ 1280 µM) against Escherichia coli [12]. The Ratio in the assay on Escherichia coli [4] turned out to be 4.
